Columns and labels:
[1] = tested on: diamondback moth (Plutella xylostella); assay: Insecticidal effect on diamondback moth (Test Example 1); assay type: in vivo; details: diamondback moth; judged by the mortality criterion of Test Example 1
Outline: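 Eggs laid by adult moths on Chinese cabbage seedlings, which were immersed in test solution, air-dried and kept at 25 °C. Hatched insects counted 6 days after immersion and mortality calculated, with effect graded by criterion; triplicate groups of 10 insects.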

[2] = tested on: rice leafroller (Cnaphalocrocis medinalis); assay: Insecticidal effect on rice leafroller (Test Example 3); assay type: in vivo; details: 500 ppm; rice lamina immersed; third-instar larvae of rice leafroller; four days after inoculation; 25° C., humidity 70%
Procedure: Insecticidal effect on rice leafroller (Cnaphalocrocis medinalis)
After air-drying, the lamina was placed in a plastic Petri dish with a diameter of 9 cm whose bottom had been covered with a wetted filter paper. The lamina was inoculated with third-instar larvae of rice leafroller, after which the dish was allowed to stand in a room thermostated at 25° C. and having a humidity of 70%. Four days after the inoculation, the dead and alive were counted and the insecticidal effect was judged according to the criterion shown in Test Example 1. The test was carried out with triplicate groups of 10 insects.

CC(C)NC(=O)c1c(Cl)cccc1C(=O)Nc1cccc(SC(F)(F)F)c1 [compound 99]
Insecticidal effect, Test Example 1 [1]: A (100) | Insecticidal effect, Test Example 3 [2]: A (100)

CC(C)NC(=O)c1c(Cl)cccc1C(=O)Nc1ccc(-c2ccccc2)cc1 [compound 110]
Insecticidal effect, Test Example 1 [1]: A (100) | Insecticidal effect, Test Example 3 [2]: A (100)

COc1ccc(NC(=O)c2cccc(Cl)c2C(=O)NC(C)C)c(C)c1 [compound 123]
Insecticidal effect, Test Example 1 [1]: A (100) | Insecticidal effect, Test Example 3 [2]: A (100)

CC(C)NC(=O)c1c(Cl)cccc1C(=O)Nc1ccc(OC(F)F)c(Cl)c1 [compound 134]
Insecticidal effect, Test Example 1 [1]: A (100) | Insecticidal effect, Test Example 3 [2]: A (100)

CC(C)NC(=O)c1c(Cl)cccc1C(=O)Nc1ccc(OC(F)F)c(F)c1 [compound 137]
Insecticidal effect, Test Example 1 [1]: A (100) | Insecticidal effect, Test Example 3 [2]: A (100)

Cc1cc(SC(C)C)ccc1NC(=O)c1cccc(Cl)c1C(=O)NC(C)C [compound 153]
Insecticidal effect, Test Example 1 [1]: A (100) | Insecticidal effect, Test Example 3 [2]: D (79-50)

CC(C)NC(=O)c1cc(Cl)ccc1C(=O)Nc1cccc(C(F)(F)F)c1 [compound 171]
Insecticidal effect, Test Example 1 [1]: A (100) | Insecticidal effect, Test Example 3 [2]: D (79-50)

Cc1ccc(Cl)cc1NC(=O)c1ccc(Cl)cc1C(=O)NC(C)C [compound 178]
Insecticidal effect, Test Example 1 [1]: A (100) | Insecticidal effect, Test Example 3 [2]: A (100)

CC(C)NC(=O)c1ccc(Cl)cc1C(=O)Nc1ccc(Cl)cc1Cl [compound 187]
Insecticidal effect, Test Example 1 [1]: A (100) | Insecticidal effect, Test Example 3 [2]: D (79-50)

CC(C)NC(=O)c1ccc(Cl)cc1C(=O)Nc1ccc(F)c(F)c1 [compound 188]
Insecticidal effect, Test Example 1 [1]: D (79-50) | Insecticidal effect, Test Example 3 [2]: D (79-50)

Cc1ccc(Cl)cc1NC(=O)c1cc(Cl)ccc1C(=O)NC(C)C [compound 191]
Insecticidal effect, Test Example 1 [1]: A (100) | Insecticidal effect, Test Example 3 [2]: A (100)

CC(C)NC(=O)c1cccc(Cl)c1C(=O)Nc1ccc(C(C)(C)C)cc1 [compound 196]
Insecticidal effect, Test Example 1 [1]: A (100) | Insecticidal effect, Test Example 3 [2]: D (79-50)

CC(C)NC(=O)c1cccc(Cl)c1C(=O)Nc1ccc(OC(F)F)cc1 [compound 200]
Insecticidal effect, Test Example 1 [1]: A (100) | Insecticidal effect, Test Example 3 [2]: A (100)

CC(C)NC(=O)c1cccc(Cl)c1C(=O)Nc1cccc([S+]([O-])C(F)(F)F)c1 (stereo not shown) [compound 206]
Insecticidal effect, Test Example 1 [1]: A (100) | Insecticidal effect, Test Example 3 [2]: A (100)

CC(C)NC(=O)c1cccc(Cl)c1C(=O)Nc1ccc(Cl)cc1Cl [compound 209]
Insecticidal effect, Test Example 1 [1]: A (100) | Insecticidal effect, Test Example 3 [2]: B (99-90)

CC(C)NC(=O)c1cccc(Cl)c1C(=O)Nc1ccc(F)cc1F [compound 210]
Insecticidal effect, Test Example 1 [1]: A (100) | Insecticidal effect, Test Example 3 [2]: D (79-50)

CC(C)NC(=O)c1cccc(Cl)c1C(=O)Nc1ccc(F)cc1Cl [compound 211]
Insecticidal effect, Test Example 1 [1]: A (100) | Insecticidal effect, Test Example 3 [2]: A (100)

Cc1cc(Br)ccc1NC(=O)c1c(Cl)cccc1C(=O)NC(C)C [compound 216]
Insecticidal effect, Test Example 1 [1]: A (100) | Insecticidal effect, Test Example 3 [2]: A (100)

Cc1cc(I)ccc1NC(=O)c1c(Cl)cccc1C(=O)NC(C)C [compound 217]
Insecticidal effect, Test Example 1 [1]: A (100) | Insecticidal effect, Test Example 3 [2]: A (100)

COc1ccc(NC(=O)c2c(Cl)cccc2C(=O)NC(C)C)c(C)c1 [compound 218]
Insecticidal effect, Test Example 1 [1]: A (100) | Insecticidal effect, Test Example 3 [2]: C (89-80)

CC(C)NC(=O)c1cccc(Cl)c1C(=O)Nc1ccc(C(F)(F)F)cc1Cl [compound 220]
Insecticidal effect, Test Example 1 [1]: A (100) | Insecticidal effect, Test Example 3 [2]: A (100)

Cc1cc(C(F)(F)C(F)(F)C(F)(F)C(F)(F)C(F)(F)C(F)(F)F)ccc1NC(=O)c1c(Cl)cccc1C(=O)NC(C)C [compound 226]
Insecticidal effect, Test Example 1 [1]: A (100) | Insecticidal effect, Test Example 3 [2]: A (100)

CC(C)NC(=O)c1cccc(Cl)c1C(=O)Nc1ccc(OC(F)F)c(Cl)c1 [compound 232]
Insecticidal effect, Test Example 1 [1]: A (100) | Insecticidal effect, Test Example 3 [2]: A (100)

CC(C)NC(=O)c1cccc(Cl)c1C(=O)Nc1ccc(OC(F)(F)F)cc1Cl [compound 234]
Insecticidal effect, Test Example 1 [1]: A (100) | Insecticidal effect, Test Example 3 [2]: A (100)

CC(C)NC(=O)c1cccc(Cl)c1C(=O)Nc1ccc(OC(F)(F)F)cc1Br [compound 235]
Insecticidal effect, Test Example 1 [1]: A (100) | Insecticidal effect, Test Example 3 [2]: A (100)

Cc1cc(OC(F)(F)F)ccc1NC(=O)c1c(Cl)cccc1C(=O)NC(C)C [compound 237]
Insecticidal effect, Test Example 1 [1]: A (100) | Insecticidal effect, Test Example 3 [2]: A (100)

Cc1cc(OC(F)(F)Br)ccc1NC(=O)c1c(Cl)cccc1C(=O)NC(C)C [compound 238]
Insecticidal effect, Test Example 1 [1]: A (100) | Insecticidal effect, Test Example 3 [2]: A (100)

Cc1cc(Oc2ncc(C(F)(F)F)cc2Cl)ccc1NC(=O)c1c(Cl)cccc1C(=O)NC(C)C [compound 250]
Insecticidal effect, Test Example 1 [1]: A (100) | Insecticidal effect, Test Example 3 [2]: D (79-50)

CCOP(=O)(OCC)c1ccc(NC(=O)c2c(Cl)cccc2C(=O)NC(C)C)c(C)c1 [compound 251]
Insecticidal effect, Test Example 1 [1]: A (100) | Insecticidal effect, Test Example 3 [2]: A (100)

CC(C)NC(=O)c1cccc(Cl)c1C(=O)Nc1ccc2oc(C(F)(F)F)nc2c1 [compound 255]
Insecticidal effect, Test Example 1 [1]: A (100) | Insecticidal effect, Test Example 3 [2]: A (100)

CC(C)NC(=O)c1cccc(Cl)c1C(=O)Nc1ccc2c(c1)nc(C(F)(F)F)n2C [compound 257]
Insecticidal effect, Test Example 1 [1]: A (100) | Insecticidal effect, Test Example 3 [2]: B (99-90)

Cc1cc(OC(F)F)ccc1NC(=O)c1c(Cl)ccc(Cl)c1C(=O)NC(C)C [compound 258]
Insecticidal effect, Test Example 1 [1]: A (100) | Insecticidal effect, Test Example 3 [2]: A (100)

Cc1cc(Cl)ccc1NC(=O)c1c(Cl)ccc(Cl)c1C(=O)NC(C)C [compound 259]
Insecticidal effect, Test Example 1 [1]: A (100) | Insecticidal effect, Test Example 3 [2]: D (79-50)

Cc1cccc(NC(=O)c2cccc(Br)c2C(=O)NC(C)C)c1C [compound 263]
Insecticidal effect, Test Example 1 [1]: A (100) | Insecticidal effect, Test Example 3 [2]: A (100)

CC(C)NC(=O)c1c(Br)cccc1C(=O)Nc1ccc2c(c1)OCO2 [compound 300]
Insecticidal effect, Test Example 1 [1]: A (100) | Insecticidal effect, Test Example 3 [2]: A (100)

Cc1cccc(NC(=O)c2c(Br)cccc2C(=O)NC(C)C)c1C [compound 303]
Insecticidal effect, Test Example 1 [1]: A (100) | Insecticidal effect, Test Example 3 [2]: D (79-50)

Cc1ccc(Cl)cc1NC(=O)c1c(Br)cccc1C(=O)NC(C)C [compound 307]
Insecticidal effect, Test Example 1 [1]: A (100) | Insecticidal effect, Test Example 3 [2]: D (79-50)

Cc1cc(Br)ccc1NC(=O)c1c(Br)cccc1C(=O)NC(C)C [compound 311]
Insecticidal effect, Test Example 1 [1]: A (100) | Insecticidal effect, Test Example 3 [2]: D (79-50)

Cc1cc(F)ccc1NC(=O)c1c(Br)cccc1C(=O)NC(C)C [compound 314]
Insecticidal effect, Test Example 1 [1]: A (100) | Insecticidal effect, Test Example 3 [2]: A (100)

CC(C)NC(=O)c1cccc(Br)c1C(=O)Nc1ccc(C(F)(F)F)cc1Cl [compound 315]
Insecticidal effect, Test Example 1 [1]: A (100) | Insecticidal effect, Test Example 3 [2]: A (100)

Cc1ccc(NC(=O)c2c(Br)cccc2C(=O)NC(C)C)c(C)c1OC(F)F [compound 320]
Insecticidal effect, Test Example 1 [1]: A (100) | Insecticidal effect, Test Example 3 [2]: D (79-50)

— patent US6362369B1, “Phthalic acid diamide derivatives fluorine-containing aniline compounds as starting material, agricultural and horticultural insecticides, and a method for application of the insecticides” (Nihon Nohyaku Co., Ltd., priority 1997, dated 2002)
